pIC50: −log10 of the molar value.
Test system: immortalized human sebocyte cell line, SZ95
Experiment: In vitro assay of inhibition of Lipid Synthesis
Type: cell-based
Conditions: SZ95 cells, lipid synthesis induced by 75µM AA, 48h, neutral lipids measured with AdipoRed fluorescence
Procedure: To evaluate the inhibition of lipid synthesis, the immortalized human sebocyte cell line, SZ95 (stablished by Zouboulis, C.C. et al J Invest Dermatol 1999; 113: 1011-20), was treated with arachidonic acid (AA) in presence or absence of compound. Lipids were detected by using a lipid sensing fluorophore.
10k cells were plated in 384 well microtiter plates and incubated at 37 °C and 5% CO2 in DMEM/F12 supplemented with 10% FBS, 1.25ng/ml of rhEGF and GA-1000, using the MicroClime Lids from Labcyte to reduce the edge effect, before of compound and stimulus addition.
After 24h, compounds were dissolved in DMSO 100%. Then the stocks were serial diluted 1/3 in DMSO 100%, and this battery of solutions were diluted 1/10 in culture medium. Later, compounds dissolved in culture media were added over cells, diluting the solutions prepared 1/40 in the final volume of the assay. Then, cells and compounds were preincubated for 30 min at 37 °C and 5% CO2. After this prior incubation, the lipid synthesis was induced by 75µM of AA final solution, preparing a solution 10x in culture media containing a 1.25% of DMSO. Finally, SZ95 treated were incubated for 48h at 37°C and 5% CO2.
Neutral lipids were measured using AdipoRedTM, purchased from Lonza. To do that, cells were washed with PBS and incubated with a solution of AdipoRedTM (final dilution 1/80 in PBS) for 30 min at room temperature. After the staining process, the fluorescence intensity (FI) was quantified using a fluorescence plate reader (excitation 485 nm; emission 535).
Activity of compounds was calculated as % of inhibition considering the maximal fluorescence for AA-stimulated cells and the minimum fluorescence for unstimulated cells as controls.

CCCCCCCc1ccc(-c2c[nH]c(C(=O)O)c2F)c(Cl)c1 [Example 1, 4-(2-Chloro-4-heptylphenyl)-3-fluoro-1H-pyrrole-2-carboxylic acid]
pIC50 (Homo sapiens): > 6.70

CCCCCCCc1ccc(-c2c[nH]c(C(=O)O)c2F)c(CC)c1 [Example 2, 4-(2-Ethyl-4-heptylphenyl)-3-fluoro-1H-pyrrole-2-carboxylic acid]
pIC50 (Homo sapiens): > 6.70

CCCCCCCCCCCCCc1c[nH]c(C(=O)O)c1F [Example 3, 3-Fluoro-4-tridecyl-1H-pyrrole-2-carboxylic acid]
pIC50 (Homo sapiens): > 7.30

CCCCCCCCC1CCC(c2c[nH]c(C(=O)O)c2F)CC1 (stereo not shown) [Example 4, 3-Fluoro-4-((1r,4s)-4-octylcyclohexyl)-1H-pyrrole-2-carboxylic acid]
pIC50: > 6.70

Reference: EP4014964A1, “TOPICAL FORMULATION” (Almirall S.A., priority 2020, dated 2022)
